From ChEMBL document CHEMBL5576160, “N-Substituted Pyrrole-Based Heterocycles as Broad-Spectrum Filoviral Entry Inhibitors” (J Med Chem, 2024)
pEC50, pKd: −log10 of the molar value. Calls of active or inactive are those of the source. The calls are words filed in the database; no cut-off is given here.

Key:
Bundibugyo virus = assay: Antiviral activity against pseudotyped Bundibugyo virus infected in human A549 cells assessed as inhibition of viral growth; type: functional, organism-based
Ebolavirus [1] = assay: Antiviral activity against pseudotyped EBOV Mayinga infected in human A549 cells assessed as inhibition of Pseudoviral entry incubated for 40 hrs; type: functional, organism-based; details: Orthoebolavirus, A549, 40 h
[2] = Stability in human plasma measured after 60 mins; type: ADME, cell-free; details: read-out: Stability
Marburgvirus [3] = assay: Antiviral activity against Marburgvirus Angola infected in human Huh-7 cells assessed as inhibition of viral replication; type: functional, organism-based; details: Orthomarburgvirus
[4] = Selectivity index, ratio of CC50 for cytotoxicity against human A549 cells to EC50 for antiviral activity against pseudotyped Marburgvirus Angola infected in human A549 cells assessed as inhibition of Pseudoviral entry; type: toxicity, cell-based; details: read-out: Ratio CC50/EC50
Sudan ebolavirus [5] = assay: Antiviral activity against pseudotyped Sudan ebolavirus Gulu infected in human HeLa cells assessed as inhibition of viral replication; type: functional, organism-based
[6] = Selectivity index, ratio of CC50 for cytotoxicity against human A549 cells to EC50 for antiviral activity against pseudotyped EBOV Mayinga infected in human A549 cells assessed as inhibition of Pseudoviral entry; type: toxicity, cell-based; details: read-out: Ratio CC50/EC50
Marburgvirus [7] = assay: Antiviral activity against pseudotyped Marburgvirus Angola infected in human A549 cells assessed as inhibition of Pseudoviral entry incubated for 40 hrs; type: functional, organism-based; details: Orthomarburgvirus, A549, 40 h
Sudan ebolavirus [8] = assay: Antiviral activity against pseudotyped Sudan ebolavirus Gulu infected in human A549 cells assessed as inhibition of viral growth; type: functional, organism-based
Ebolavirus [9] = assay: Antiviral activity against EBOV Mayinga infected in human HeLa cells assessed as inhibition of viral replication incubated for 40 hrs; type: functional, organism-based; details: Orthoebolavirus
Tai Forest ebolavirus = assay: Antiviral activity against pseudotyped Tai Forest ebolavirus infected in human A549 cells assessed as inhibition of viral growth; type: functional, organism-based
[10] = Stability in mouse plasma measured after 60 mins; type: ADME, cell-free; details: read-out: Stability
[11] = Metabolic stability in human microsome measured at 60 min; type: ADME; details: microsomes, read-out: Stability
Ebolavirus [12] = assay: Antiviral activity against pseudotyped EBOV Mayinga infected in human A549 cells assessed as inhibition of viral growth at 3 uM measured after 3 hrs; type: functional, organism-based
Marburgvirus [13] = assay: Antiviral activity against pseudotyped Marburgvirus Angola infected in human A549 cells assessed as inhibition of viral growth at 10 uM entry measured after 2 hrs; type: functional, organism-based
[14] = Binding affinity to EBOV glycoprotein assessed as dissociation constant by SPR analysis; design: species or system Ebolavirus
Ebolavirus [15] = assay: Antiviral activity against pseudotyped EBOV 1976 Zaire Mayinga assessed as inhibition of viral growth; type: functional, organism-based; details: Orthoebolavirus
Ebolavirus [16] = assay: Antiviral activity against infectious EBOV 1976 Zaire Mayinga assessed as inhibition of viral growth; type: functional, organism-based; details: Orthoebolavirus
Marburgvirus [17] = assay: Antiviral activity against pseudotyped Marburgvirus 2005 Lake Victoria Angola assessed as inhibition of viral growth; type: functional, organism-based; details: Orthomarburgvirus
CYP2C9 = CYP2C9 (Homo sapiens, UniProt P11712); assay: Inhibition of CYP2C9 in human liver microsomes using tolbutamide as substrate at 10 uM preincubated with compound for 5 mins followed by NADPH addition and measured after 20 mins by LC-MS/MS analysis relative to control; type: ADME, Microsome; details: probe tolbutamide, time 25 min
CYP2C9, sequence (P11712 whole entry): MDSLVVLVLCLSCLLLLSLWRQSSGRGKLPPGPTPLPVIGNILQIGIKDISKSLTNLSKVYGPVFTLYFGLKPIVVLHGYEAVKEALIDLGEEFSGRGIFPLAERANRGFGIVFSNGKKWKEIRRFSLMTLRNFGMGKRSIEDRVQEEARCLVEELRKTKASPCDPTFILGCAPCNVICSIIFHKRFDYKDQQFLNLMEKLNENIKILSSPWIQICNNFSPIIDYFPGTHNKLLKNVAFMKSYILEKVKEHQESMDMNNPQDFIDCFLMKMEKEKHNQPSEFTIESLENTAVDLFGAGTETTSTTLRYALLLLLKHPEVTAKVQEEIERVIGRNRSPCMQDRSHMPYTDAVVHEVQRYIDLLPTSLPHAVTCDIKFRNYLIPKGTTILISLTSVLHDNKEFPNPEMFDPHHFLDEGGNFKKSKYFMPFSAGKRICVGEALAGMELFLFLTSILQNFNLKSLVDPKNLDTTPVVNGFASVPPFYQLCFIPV

CYP2D6 = CYP2D6 (Homo sapiens, UniProt P10635); assay: Inhibition of CYP2D6 in human liver microsomes using dextromethorphan as substrate at 10 uM preincubated with compound for 5 mins followed by NADPH addition and measured after 20 mins by LC-MS/MS analysis relative to control; type: ADME, Microsome; details: probe dextromethorphan, time 25 min
CYP2D6, sequence (P10635 whole entry): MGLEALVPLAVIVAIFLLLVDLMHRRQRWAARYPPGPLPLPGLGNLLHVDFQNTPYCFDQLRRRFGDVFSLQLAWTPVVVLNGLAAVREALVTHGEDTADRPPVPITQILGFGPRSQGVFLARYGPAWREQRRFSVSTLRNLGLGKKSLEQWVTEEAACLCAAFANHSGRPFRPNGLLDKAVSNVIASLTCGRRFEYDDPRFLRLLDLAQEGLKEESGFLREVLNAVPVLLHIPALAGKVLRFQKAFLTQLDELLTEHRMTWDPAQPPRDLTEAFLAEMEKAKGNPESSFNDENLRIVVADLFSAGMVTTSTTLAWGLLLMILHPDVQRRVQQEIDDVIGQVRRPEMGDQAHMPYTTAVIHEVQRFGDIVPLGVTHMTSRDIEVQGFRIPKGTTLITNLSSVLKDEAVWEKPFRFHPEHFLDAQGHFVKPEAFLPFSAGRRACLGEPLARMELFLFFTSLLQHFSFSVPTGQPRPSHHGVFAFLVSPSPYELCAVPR

CN(C)C1CCN(C(=O)c2cc3occc3n2Cc2ccc(Cl)cc2)CC1
pEC50 (Bundibugyo virus): 5.70 | pEC50 (Ebolavirus [1]): 5.98 | remaining at 1 h [2]: 100% | pEC50 (Marburgvirus [3]): 5.10 | selectivity ratio [4]: 5.3 | pEC50 (Sudan ebolavirus [5]): 6.30 | selectivity ratio [6]: 58 | pEC50 (Marburgvirus [7]): 4.94 | pEC50 (Sudan ebolavirus [8]): 6.19 | pEC50 (Ebolavirus [9]): 5.21 | pEC50 (Tai Forest ebolavirus): 5.25 | remaining at 1 h [10]: 100%

CN(C)C1CCN(C(=O)c2cn(Cc3ccccc3)c3ccccc23)CC1
pEC50 (Ebolavirus [1]): 5.55 | remaining at 1 h [2]: 100% | remaining at 1 h [11]: 95.7% | selectivity ratio [4]: 6.9 | pEC50 (Marburgvirus [7]): 4.84 | remaining at 1 h [10]: 100%

CN(C)CCOc1ccc(/C(=C(/CCCl)c2ccccc2)c2ccccc2)cc1 [TOREMIFENE]
Activity (Ebolavirus [12]): inactive | Activity (Marburgvirus [13]): inactive | pKd [14]: 4.72

OCCOc1ccc(/C(=C(/CCCl)c2ccccc2)c2ccccc2)cc1 [OSPEMIFENE]
pKd [14]: 4.70

CN(C)CCNC(=O)c1cc2occc2n1Cc1ccc(Cl)cc1
pEC50 (Bundibugyo virus): 5.71 | pEC50 (Ebolavirus [1]): 5.90 | pEC50 (Ebolavirus [15]): 5.90 | pEC50 (Ebolavirus [16]): 5.28 | remaining at 1 h [2]: 100% | pEC50 (Marburgvirus [17]): 5.11 | pEC50 (Marburgvirus [3]): 5.17 | selectivity ratio [4]: 9.8 | pEC50 (Sudan ebolavirus [5]): 5.48 | selectivity ratio [6]: 50 | pEC50 (Marburgvirus [7]): 5.19 | pEC50 (Sudan ebolavirus [8]): 5.98 | pEC50 (Ebolavirus [9]): 5.61 | pEC50 (Tai Forest ebolavirus): 5.37 | remaining at 1 h [10]: 100%

CN(C)C1CCN(C(=O)c2cc3ccccc3n2CC2CCCCC2)CC1
pEC50 (Ebolavirus [1]): 6.53 | Activity (Ebolavirus [12]): inactive | remaining at 1 h [2]: 100% | inhibition at 20 min, 10 µM (CYP2C9): 4.82% | Activity (Marburgvirus [13]): inactive | pEC50 (Marburgvirus [3]): 5.88 | inhibition at 20 min, 10 µM (CYP2D6): 19.1% | selectivity ratio [4]: 15 | pEC50 (Sudan ebolavirus [5]): 6.19 | selectivity ratio [6]: 170 | pEC50 (Marburgvirus [7]): 5.48 | pEC50 (Ebolavirus [9]): 6.41 | remaining at 1 h [10]: 100%
